According to article PMC6522964 (Journal of Enzyme Inhibition and Medicinal Chemistry, 2019):
Like-named read-outs stand apart in the source and are kept apart here.

How the values were obtained:
[1] = biological target: T1, tyrosinase (Agaricus bisporus, UniProt C7FF04); type: biochemical, mushroom; conditions: increasing CuCl2 0-240 μM; diphenolase activity
T1 construct: purchased Sigma-Aldrich (St. Louis, MO, USA)
Experimental: To investigate whether the binding of copper ions with the inhibitor takes place at the active site of tyrosinase, the assay was carried out according to the method by Ismaya with some modifications.[17] Stock solutions of each KADs (10 mM) were prepared in DMSO. Then, 0.33 mM solutions were prepared in a cuvette containing phosphate buffer (10 mM, pH 7.4), and treated with different concentrations of CuCl2 (0, 60, 120, 180 or 240 µM). After 10 min of incubation period at room temperature, absorbance was scanned from 240 to 600 nm. Moreover, the relative activity of tyrosinase was determined by adding 0.1 ml various concentrations of CuCl2–KADs complexes from the previous step. The reaction system and the method were the same as the determination of diphenolase activity.

[2] = biological target: T2, mushroom tyrosinase (Agaricus bisporus, UniProt C7FF04); test: Diphenolase activity of mushroom tyrosinase (L-DOPA as substrate), Lineweaver-Burk kinetics; type: biochemical; conditions: for Inhibition Type / Inhibition Mechanism: diphenolase; for Inhibition Type: Lineweaver-Burk plots; for Inhibition Mechanism: enzyme activity vs enzyme concentration plots; for Inhibition constant KIS: enzyme-substrate complex, plot of vertical intercepts vs inhibitor concentration; for Ki: free enzyme, plot of slopes vs inhibitor concentration, read-out: Inhibition constant KI
T2 construct: purchased Sigma-Aldrich (St. Louis, MO, USA)
Experimental: (§1) The reaction system (3 ml) contained 1 mM L-Tyr or 0.5 mM L-DOPA and enzyme in 50 mM Na2HPO4–NaH2PO4 buffer (pH 6.8) and different concentrations of KADs. The KADs were dissolved in DMSO and diluted to appropriate concentration, such that the final concentration of DMSO is maintained at 3.3%. […] The enzyme activity was evaluated by increasing the absorbance at 475 nm accompanying the oxidation of the substrates with a molar absorption coefficient of 3700 (M^−1 cm^−1). […] The reaction was carried out at 37 °C. A Thermo […] GO spectrophotometer was used for absorbance and kinetic measure.

[3] = biological target: T1, tyrosinase; test: Intrinsic fluorescence quenching of tyrosinase (Stern-Volmer); type: binding, mushroom
Experimental: Fluorescence spectra were determined as previously reported by Zhu.[12] Cary Eclipse fluorescence spectrophotometer was used to record the fluorescence intensities at an excitation wavelength of 280 nm, and emission and excitation slit widths were 10 nm and 5 nm, respectively. At wavelengths of 300–450 nm, fluorescence emission spectra were recorded. In this assay, 10 μL of KADs of different concentrations were incorporated with 2 ml tyrosinase solution (0.2 mg/ml).
The fluorescence quenching data expressed as the fluorescence intensity against KADs concentration. Fluorescence quenching was calculated using the Stern–Volmer equation: F0/F = 1 + KSV[Q] Where F0 is the fluorescence intensities of tyrosinase, F is the fluorescence intensities after addition of the quencher, [Q] is the concentration of the quencher and KSV is the Stern–Volmer quenching constant. For the calculation of biomolecular quenching constants, the data were plotted as F0/F against [Q], with the biomolecular quenching constants calculated by linear regression.
There are two known fluorescence quenching mechanisms: static quenching is caused by complex formation while dynamic quenching is caused by collisional processes.[13] For the static quenching, the KSV value must be larger than 100 M^−1 and the apparent binding constant (KA) and the binding sites (n) were estimated by plots of log[(F0−F)/F] versus log[Q] using the following equation:[14] log ((F0 − F)/F) = logKA + nlog [Q]

[4] = biological target: T2, mushroom tyrosinase; conditions: L-Tyr substrate, read-out: IC50 Monophenolase; cited from earlier work
[5] = biological target: T2, mushroom tyrosinase; conditions: L-DOPA substrate, read-out: IC50 Diphenolase; cited from earlier work
[6] = biological target: T2, mushroom tyrosinase; test: Monophenolase activity of mushroom tyrosinase (L-Tyr as substrate); type: biochemical; conditions: maximum concentration 20 μM
Experimental: as §1

[7] = DPPH free-radical scavenging assay
Experimental: (§2) The antioxidant capacities of compounds usually analysed through DPPH and ABTS^+ free-radical scavenging assays. The DPPH free-radical scavenging was conducted according to the procedure described by Chen.[18] Stock solution (0.2 mM DPPH) was prepared in 95% methyl alcohol and diluted to with OD value of 1.1 ± 0.05 at 517 nm for analysis. Briefly, 0.1 ml of compounds dissolved in DMSO at different concentrations (50, 200, 400 and 800 μg/ml) were added to DPPH with a methyl alcohol solution (0.2 mM, 2.9 ml). The mixture was shaken gently and absorbance was read at 517 nm every 5 min, a total of 30 min. The ABTS^+ free-radical scavenging activity assay was performed as described by Ai[9] with slight modification. 7 mM ABTS^+ and 2.45 mM K2S2O8 were dissolved in 10 mM sodium phosphate buffer and then placed at dark room for 16 h to obtain ABTS^+ stock solution. […] After 6 min of incubation period at room temperature, absorbance was read at 714 nm. The scavenging capacity of the antioxidant for the free-radical was calculated according to the following equation: Radical scavenging effect (%) = (1 − A1/A0) × 100% where A0 is the absorbance of blank control and A1 is the absorbance in the presence of sample. Data are represented from three independent experiments, and the mean values were calculated. […]

[8] = ABTS+ free-radical scavenging assay
Experimental: as §2

[9] = test system: B16F10 cell; conditions: cited from earlier work

T1 sequence (C7FF04 1-392): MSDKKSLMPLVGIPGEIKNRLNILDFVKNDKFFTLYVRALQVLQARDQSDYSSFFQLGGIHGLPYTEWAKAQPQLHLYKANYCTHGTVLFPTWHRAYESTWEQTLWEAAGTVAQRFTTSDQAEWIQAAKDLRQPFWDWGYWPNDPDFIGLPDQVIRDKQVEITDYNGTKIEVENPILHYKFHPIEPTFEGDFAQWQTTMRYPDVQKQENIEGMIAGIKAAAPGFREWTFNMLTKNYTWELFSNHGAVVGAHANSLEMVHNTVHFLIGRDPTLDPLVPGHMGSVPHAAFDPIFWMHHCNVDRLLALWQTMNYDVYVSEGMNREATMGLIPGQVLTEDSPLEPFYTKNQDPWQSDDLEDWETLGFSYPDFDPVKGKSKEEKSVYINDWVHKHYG
T2 sequence (C7FF04 1-392): as above

SMILES | Change of relative tyrosinase activity after treatment with Cu2+ [1] | Inhibition Type [2] | Inhibition Mechanism [2] | Inhibition constant KIS [2] [µM] | Ki [2] [µM] | Kd [3] [µM] | KSV (Stern-Volmer quenching constant) ([3]; λex 280 nm) [M⁻¹] | Type of quenching ([3]; λex 280 nm) | n (binding sites) ([3]; λex 280 nm) | IC50 [4] [µM] | IC50 [5] [µM] | Lag time of monophenolase activity [6] [min] | Steady-state activity of monophenolase decreased to ([6]; remaining activity) [%] | KA (apparent binding constant) ([3]; λex 280 nm) [M⁻¹] | IC50 of DPPH [7] [µg/mL] | IC50 of ABTS+ [8] [µg/mL] | Inhibition of melanogenesis [9]
N[C@@H](Cc1ccc(O)c(O)c1)C(=O)O [DOPA, 3,4-dihydroxyphenylalanine, reference compound] | almost no changes |  |  |  |  |  |  |  |  |  |  |  |  |  |  |  | 
Nn1c(N/N=C/C=C/c2ccccc2)nnc1SCc1cc(=O)c(O)co1 [KAD1] | 1.5 times | Mixed | Reversible | 45.50 | 4.95 | 34.8 | 58400 | Static | 0.9394 | 21.6 | 8.33 ± 0.22 |  |  |  |  |  | 
COc1ccccc1C=CC=NNc1nnc(SCc2cc(=O)c(O)co2)n1N [KAD2] | 2 times | Mixed | Reversible | 9.18 | 6.3 |  | 57000 | Static | 1.0394 | 20.5 | 7.5 ± 0.13 | 6.7 | 48.29 | 141000 | 227.80 | 126.63 | effectively inhibit melanogenesis
